Legend:
[1] = molecular target: FXa (Homo sapiens, UniProt P00742); assay: Measurement of activated factor X activity-inhibitory activity (chromogenic substrate S-2222); type: biochemical; conditions: negative logarithmic value of concentration suppressing reaction rate of control to 50%
Method: (§1) Using a 96 well plate (#3396, Costar), Tris-HCl buffer (100 mM, 130 μL) containing 0.02% Tween 20, 0.1% PEG6000 and 0.2 M NaCl was blended with FXa (0.015 U/ml, 10 μL) and a test compound (10 μL) for 10 min, and a chromogenic substrate (0.2 mM, S-2222, 50 μL) was added. Using microplate reader Benchmark Plus (BIO-RAD), the reaction rate was measured from the time course changes in the absorbance at 405 nm. The reaction rate of the control was taken as 100%, and a negative logarithmic value of a concentration at which the reaction rate of the control could be suppressed to 50% was taken as the pIC50 value. The results are shown by pIC50 (FXa) in Table 2.

[2] = molecular target: activated factor IIa (thrombin) (Homo sapiens, UniProt P00734); assay: Measurement of activated factor II (FIIa, thrombin)-inhibitory activity (chromogenic substrate S-2238); type: biochemical; conditions: negative logarithmic value of concentration suppressing reaction rate of control to 50%
Method: as §1, with “activated factor IIa (thrombin, 0.125 U/mL,” for “FXa (0.015 U/ml,”, “(0.1” for “(0.2”, “S-2238,” for “S-2222,”, “of” for “in the”, “(IIa)” for “(FXa)”

[3] = test system: human plasma; assay: Measurement of anti-blood coagulant activity (aPTT measurement method); type: biochemical; conditions: negative logarithmic value of concentration at which aPTT of the control was double-extended
Method: The test was performed according to an aPTT measurement method using a fully-automated blood coagulation time measuring apparatus Sysmex CA-1500. In a sample tube (MS-18, Japan Medical Science) were placed DDVP solution (10 mg/ml, DDVP standard product, Wako Corporation, 4 μL), a solution (20 μL) of a test compound, and human plasma (human plasma for blood coagulation test, GCH-100A, Sysmex Corporation, 180 μL) and this was used as a test sample. The test sample (50 μL) was incubated at 37° C. for 1 min, APTT (cephalin derived from rabbit brain, DADE Behiring, 50 μL) was added, and the mixture was further incubated at 37° C. for 2 min. To the sample solution was added calcium chloride (0.02 M, 50 μL), and the time before coagulation of the plasma was automatically measured.
The anti-blood coagulation activity was shown by the negative logarithmic value of a concentration at which aPTT of the control was double-extended as paPTT2.

[4] = Evaluation of stability in plasma; type: in vitro ADME; conditions: human plasma, 37° C., calculated from quantitative lower limit at 2 min when below quantification limit
Method: To human plasma (495 μL) was added a solution (5 μL) of the test compound prepared to 100 μg/mL (final drug solution concentration 1 μg/mL), and the mixture was incubated at 37° C. At 0 min, 2 min, 5 min, 10 min, 30 min and 60 min after the addition of the drug solution, 50 μL each was sampled. Acetonitrile (100 μL) was added and the mixture was admixed to discontinue the reaction. After discontinuation of the reaction, a protein elimination treatment was performed by centrifugation (15000 rpm, 5 min). The centrifugation supernatant (20 μL) was diluted with ammonium formate solution (100 mmol/L, pH 4, 180 μL), and subjected to the measurement by LC/MS/MS.
When the value at 2 min after the addition of the drug solution was less than the quantification limit, the half-life was calculated by the following method.
That is, the value at 0 min was taken as the theoretical concentration (1000 ng/mL) and the value at 2 min was taken as the quantitative lower limit concentration. The half-life (T1/2) was calculated from the inclination of the straight line connecting the logarithmic conversion values at the two points.

FXa, sequence (P00742 235-488 limits assumed): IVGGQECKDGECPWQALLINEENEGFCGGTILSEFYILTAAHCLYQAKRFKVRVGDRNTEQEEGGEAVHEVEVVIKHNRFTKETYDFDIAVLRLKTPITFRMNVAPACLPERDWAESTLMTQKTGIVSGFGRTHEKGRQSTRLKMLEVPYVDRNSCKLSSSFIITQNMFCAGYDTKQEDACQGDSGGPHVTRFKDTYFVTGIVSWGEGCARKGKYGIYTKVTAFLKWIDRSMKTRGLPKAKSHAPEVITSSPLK
FXa, sequence (P00742 41-179 partner limits assumed): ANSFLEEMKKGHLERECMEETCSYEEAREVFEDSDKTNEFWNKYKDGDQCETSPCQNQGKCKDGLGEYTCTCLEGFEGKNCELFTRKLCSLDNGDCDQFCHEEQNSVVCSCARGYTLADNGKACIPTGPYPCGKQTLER

IC50 [1] | IC50 [2] | half-life at 1 μg/mL [4] | SMILES | paPTT2 [3]
0.398 µM | > 100 µM | < 23.7 s | N=C(N)N1CCc2ccc(C(=O)OCC3CCN(c4ccncc4)CC3)cc2C1 [compound of Ex. 2, [1-(pyridin-4-yl)piperidin-4-yl]methyl 2-[amino(imino)methyl]-1,2,3,4-tetrahydroisoquinoline-7-carboxylate ditrifluoroacetate] | 5.4
0.0794 µM | 63.1 µM | < 23.9 s | N=C(N)N1CCc2ccc(COC(=O)C3CCN(c4ccncc4)CC3)cc2C1 [compound of Ex. 3, {2-[amino(imino)methyl]-1,2,3,4-tetrahydroisoquinolin-7-yl}methyl 1-(pyridin-4-yl)piperidine-4-carboxylate ditrifluoroacetate] | 6.1
0.501 µM | 20 µM |  | N=C(N)N1CCc2ccc(OC(=O)C3(COCc4ccccc4)CCN(c4ccncc4)CC3)cc2C1 [compound of Ex. 5, 2-[amino(imino)methyl]-1,2,3,4-tetrahydroisoquinolin-7-yl 4-[(benzyloxy)methyl]-1-(pyridin-4-yl)piperidine-4-carboxylate ditrifluoroacetate] | 5.4
1.58 µM | 39.8 µM |  | COCC1(C(=O)Oc2ccc3c(c2)CN(C(=N)N)CC3)CCN(c2ccncc2)CC1 [compound of Ex. 6, 2-[amino(imino)methyl]-1,2,3,4-tetrahydroisoquinolin-7-yl 4-methoxymethyl-1-(pyridin-4-yl)piperidine-4-carboxylate ditrifluoroacetate] | 5.4
7.94 µM | > 100 µM |  | N=C(N)N1Cc2ccc(C(=O)OCC3CCN(c4ccncc4)CC3)cc2C1 [compound of Ex. 7, [1-(pyridin-4-yl)piperidin-4-yl]methyl 2-[amino(imino)methyl]isoindoline-5-carboxylate ditrifluoroacetate] | 4.6
3.16 µM | > 100 µM |  | N=C(N)N1Cc2ccc(COC(=O)C3CCN(c4ccncc4)CC3)cc2C1 [compound of Ex. 8, {2-[amino(imino)methyl]-isoindolin-5-yl}methyl 1-(pyridin-4-yl)piperidine-4-carboxylate ditrifluoroacetate] | <5
10 µM | > 100 µM |  | CC(=N)N1CCC(Oc2ccc(COC(=O)c3ccc4c(c3)CN(C(=N)N)CC4)cc2)CC1 [compound of Ex. 15, 4-{[1-(1-iminoethyl)piperidin-4-yl]oxy}benzyl 2-[amino(imino)methyl]-1,2,3,4-tetrahydroisoquinoline-7-carboxylate ditrifluoroacetate] | 4.4
5.01 µM | > 100 µM |  | CC(=N)N1CCC(Oc2ccc(C(=O)OCc3ccc4c(c3)CN(C(=N)N)CC4)cc2)CC1 [compound of Ex. 16, {2-[amino(imino)methyl]-1,2,3,4-tetrahydroisoquinolin-7-yl}methyl 4-{([1-(1-iminoethyl)piperidin-4-yl]oxy}benzoate ditrifluoroacetate] | 4.5

— US20110172416A1, “AMIDINE DERIVATIVE” (Ajinomoto Co., Inc., priority 2008, published 2011)
